From patent publication US20140296137A1, “METHODS AND COMPOSITIONS FOR CONTROLLING ROTIFERS” (Los Alamos National Security, LLC, priority 2013, published 2014)
Ends that are not written are not given here.

Assays:
[1] = tested on: Chlamydomonas reinhardtii; details: 5-6 days, room temperature, 96-well, algae colour under 20× microscope; ND = AMP killed all the algae
Experimental: (§1) This example provides the minimal inhibitory concentration (MIC) of antimicrobial peptides (AMPs) for algae. […] Therefore, the tolerance of algae to the AMPs listed in Table 2 of Example 1 was measured.
(§2) Briefly, the algae viability assay used herein measured the “health” of the algae cultures by looking at the color of the algae. […] A visual assay was used to determine the MIC for the individual AMPs on the algae. In each case, a light microscope with 20× magnification was used to observe algae color.
(§3) The effect of insecticidal and non-insecticidal AMPs on three different algae species was measured. The three algae species were Auxenochlorella protothecoides, Chlorella sorokiniana and Chlamydomonas reinhardtii.
(§4) Algae cultures were initiated in 96-well plates at an OD 750 of approximately 0.1. […] The antibiotics hygromycin and paromycin served as positive controls for inhibiting and/or reducing the growth rate of algae. […] The algae cultures were monitored by preparing microscopy slides with a small sample taken from the individual wells. The algae slides were then visualized under a 20× magnification microscope for algae viability as measured by algae color.

[2] = tested on: Chlorella protothecoides; details: 5-6 days, room temperature, 96-well, algae colour under 20× microscope; ND = AMP killed all the algae
Experimental: as §1, §2, §3, §4

[3] = tested on: Chlorella sorokiniana; details: 5-6 days, room temperature, 96-well, algae colour under 20× microscope; ND = AMP killed all the algae
Experimental: as §1, §2, §3, §4

[4] = tested on: Adineta vaga; format: in vivo; set-up: key to the marks not given beside the values; details: AMP 0.5 mg/mL, 24 hr time point, room temperature, visual motility score
Description: (§5) Briefly, the rotifer motility assay used herein in the presence of a biocontrol agent (e.g., AMP) may be used as a measure of relative rotifer viability and competency. Rotifer diet, of which algae is considered to be an important food source, is one of the key environmental factors that impact the growth and multiplication of rotifers. In effect, the inability of a rotifer to be mobile (i.e., inability to swim toward a food source and/or to have mobile cilia that help trap food) prevents the rotifer from ingesting sufficient nutrients to further grow and reproduce. Thus, any approach that reduces and/or inhibits rotifer motility has a significant impact on an individual rotifer and therefore rotifer populations. With respect to algae cultures, reducing and/or inhibiting rotifer motility prevents and/or reduces any negative impact rotifers have on algae cultures (e.g., open pond systems for algae biomass and biofuel production). In other words, reducing and/or inhibiting rotifer motility reduces and/or prevents rotifers (e.g., infestations) from ingesting and consequently damaging algae cultures use in biofuel production.
(§6) The effect of the insecticidal and non-insecticidal AMPs of Table 2 (Example 1) on three different rotifer species was measured. The three rotifer species were Adineta vaga and Philodina acuticornis (class Bdelloid rotifers), and Brachionus (Monogononta class). A visual motility assay was used to determine the impact of the individual AMPs on rotifer viability. In each case, a light microscope with 20× magnification was used to observe rotifer motility (activity). […] FIGS. 1A, 1C and 1E show a 20× magnification of Adineta vaga, Philodina acuticornis and Brachionus (untreated), respectively. FIGS. 1B, 1D and 1F show a 20× magnification of Adineta vaga, Philodina acuticornis and Brachionus (AMP treated), respectively.
(§7) Rotifer cultures were initiated in 12-well or 24-well plates at a density of approximately 100-200 rotifers/mL. The 12-well plates contained a volume of 1 mL per well, and the 24-well plates contained a volume of about 0.25 mL to about 0.35 mL per well. Individual rotifer cultures (individual wells) were incubated with a select AMP at a concentration of 0.5 mg/mL (or a range of about 78 μM to about 365 μM) for 18, 21 and 24 hours at room temperature. The rotifer cultures were monitored by preparing microscopy slides with a small sample taken from the individual wells. The slides were then visualized under a 20× magnification microscope for rotifer motility. […] The scoring system was based on observing a subset of the rotifer population from each well. The impact on the subset of rotifers observed served as a representative of the impact on the entire rotifer population for that particular AMP treatment.
(§8) A summary of the motility assay (or “Kill Assay”) for each insecticidal and non-insecticidal AMP incubated with the three different rotifer species for the 24 hour time point is provided below in Table 5 (insecticidal AMPs) and Table 6 (non-insecticidal AMPs). The 18 and 21 hour time points gave similar results to the 24 hour time point.

[5] = tested on: Philodina acuticornis; format: in vivo; set-up: key to the marks not given beside the values; details: AMP 0.5 mg/mL, 24 hr time point, room temperature, visual motility score
Description: as §5, §6, §7, §8

[6] = tested on: Brachionus; format: in vivo; details: AMP 0.5 mg/mL, 24 hr time point, room temperature, visual motility score
Description: as §5, §6, §7, §8

[7] = tested on: three algae species; experiment: Algae viability assay, summary statements over the three algae species; format: cell-based; details: comparison of Tables 3 and 4 with Tables 5 and 6
Experimental: as §1, §2, §3
Algae cultures were initiated in 96-well plates at an OD 750 of approximately 0.1. […] The antibiotics hygromycin and paromycin served as positive controls for inhibiting and/or reducing the growth rate of algae. Algae cultured in water or media served as a negative control (i.e., no effect on growth). The algae cultures were monitored by preparing microscopy slides with a small sample taken from the individual wells. The algae slides were then visualized under a 20× magnification microscope for algae viability as measured by algae color. […]

[8] = tested on: three rotifer species; experiment: Rotifer visual motility assay, summary statements over the three rotifer species; format: in vivo, Adineta vaga, Philodina acuticornis and Brachionus; details: AMP 0.5 mg/mL
Description: as §5, with “In other words, reducing and/or inhibiting rotifer motility reduces and/or prevents rotifers (e.g., infestations) from ingesting and consequently damaging algae cultures use in biofuel production.” left out
The effect of the insecticidal and non-insecticidal AMPs of Table 2 (Example 1) on three different rotifer species was measured. […]
Rotifer cultures were initiated in 12-well or 24-well plates at a density of approximately 100-200 rotifers/mL. […] The rotifer cultures were monitored by preparing microscopy slides with a small sample taken from the individual wells. […]

FIGTALGIASAIPAIVKLFK [Ponericin W6]
Minimal Inhibitory Concentration (MIC) Chlamydomonas reinhardtii [1]: 61.6 µM
Minimal Inhibitory Concentration (MIC) Chlorella protothecoides [2]: No Affect
Minimal Inhibitory Concentration (MIC) Chlorella sorokiana [3]: 492.5 µM
“Kill” Efficiency Adineta vaga [4]: ++
“Kill” Efficiency Philodina [5]: ++
“Kill” Efficiency Brachionus [6]: +++
tolerance of algae to the AMP (in words) [7]: highly tolerated by algae
negative impact on rotifer motility (in words) [8]: high negative impact

FLPLIGKVLSGIL [Temporin F, Temporin-F]
Minimal Inhibitory Concentration (MIC) Chlamydomonas reinhardtii [1]: 91.3 µM
Minimal Inhibitory Concentration (MIC) Chlorella protothecoides [2]: 365 µM
Minimal Inhibitory Concentration (MIC) Chlorella sorokiana [3]: 730.7 µM
tolerance of algae to the AMP (in words) [7]: highly tolerated by algae
negative impact on rotifer motility (in words) [8]: high negative impact
